Data as given in paper PMC9240354, “Pharmacokinetics, Pharmacodynamics and Antiviral Efficacy of the MEK Inhibitor Zapnometinib in Animal Models and in Humans” (Frontiers in Pharmacology, 2022).

Experiments:
[1] = pharmacokinetics, summary regardless of species; assay type: in vivo, mice, hamsters, dogs, human; conditions: regardless of species or formulation
Method: Pharmacokinetic analysis of the mouse plasma samples was performed using standard procedures at Prolytic GmbH (Frankfurt, Germany). Hamster plasma samples were analyzed at Synovo GmbH (Tuebingen, Germany) using HPLC MS/MS (Agilent 1260 HPLC with Sciex API4500) with linear response for plasma concentrations between 15 nM and 33 µM (6.1 ng/ml to 13.5 μg/ml). Pharmacokinetic analyses of the dog plasma samples were performed at Pharmascience Inc. (Montreal, Canada) using an HPLC MS/MS method for the determination of zapnometinib plasma concentrations. The validated calibration range for this assay is from 0.6 μg/ml to […] for which all validation requirements were successfully evaluated. Regressions, calibration standard, quality control sample, animal sample result tables, acquisition methods and chromatograms were generated by Applied Biosystems Analyst^TM software, version 1.6.2. Plasma concentrations of zapnometinib of the human samples were determined at SGS Life Sciences (Bioanalysis Department, Wavre, Belgium) using a validated HPLC MS/MS method with a lower limit of quantification of 10 ng/ml for the analyte zapnometinib. Statistical analysis was performed by SGS (demography and safety analyses, exposure, and compliance) using SAS® version 9.4 (SAS Institute Inc., Cary, NC, United States).

[2] = mice
MEK = MEK inhibition in PBMCs of treated mice (pERK/ERK, Wes); assay type: in vivo, C57BL/6 mice
Method: PBMCs were isolated from the same blood samples (30 µl mouse blood, 50 µl hamster blood, or 1 ml dog blood) used for pharmacokinetic analysis. After plasma separation as described in the section above (Blood sampling and preparation of plasma samples), the remaining red blood cells were lysed by adding 1 volume of red blood cell (RBC) lysis buffer (Thermo Fisher Scientific, Waltham, MA, United States) (300 µl for mice, 500 µl for hamster, and 10 ml for dogs). The samples were incubated for 15 min at RT and centrifuged at 500 x g for 5 min (RT). The supernatant was removed completely, and the pellet was washed twice with PBS. The PBMC cell pellets were store at −80°C until further analysis. PBMCs of 8 ml human blood were isolated using CPT^TM tubes. After a 20-min centrifugation at 1,650 x g at room temperature, the plasma was collected for PK analysis as described in the section above (Blood sampling and preparation of plasma samples). […]
The pharmacodynamic assessment was performed using the Wes™ (Simple Western™) system which uses capillary electrophoresis to separate, identify and quantify proteins of interest. A chemiluminescence signal for each identified protein is detected and the area under the peak is calculated, which is then used for quantification. The 0.1x Sample Buffer, 400 mM dithiothreitol (DTT) solution, 5x Fluorescence Master Mix, and the Biotinylated Ladder (ProteinSimple®, Abingdon, Oxford, United Kingdom) were prepared according to manufacturer’s instructions. […] Then the 5x Fluorescence Master Mix in DTT (ProteinSimple®) was added, and the samples were denatured for 5 min at 95°C, loaded onto the assay plate and analyzed using specific antibodies. […] The anti-rabbit secondary antibody (Cat# DM-001) was also purchased from ProteinSimple® and was ready to use. Data were analyzed with Compass software for simple western (ProteinSimple®). Using the ratio of pERK to ERK of each sample compared to control (pre-dose), the level of ERK phosphorylation was calculated and then converted into the percentage level of MEK inhibition.

SARS-CoV-2 = system: SARS-CoV-2; design: method as in Schreiber et al., 2022; conditions: reduction in viral growth in cell lines; ref Schreiber et al., 2022; cited from earlier work
[3] = system: influenza A and B viruses; design: method as in Laure et al., 2020; conditions: in vitro, ref Laure et al., 2020, read-out: EC50 antiviral efficacy; cited from earlier work

## O=C(O)c1ccc(F)c(F)c1Nc1ccc(I)cc1Cl [zapnometinib, 2-(2-Chloro-4-Iodophenylamino)-N-3,4-Difluoro benzoic acid]
[1]
  time to maximum plasma concentration (Cmax): 2 to 4 h
[2]; 25 mg/kg p.o. twice, t = 10 h
  plasma concentration two hours after the second administration: 101 ± 16 µg/mL
[2]; 25 mg/kg p.o., t = 8 h
  plasma concentration prior to the second treatment: 36 ± 8 µg/mL
MEK; 2 h after first treatment
  MEK inhibition, first maximum: 72 ± 10%
MEK; 22 h after first treatment (14 h after second)
  MEK inhibition, second maximum: 80 ± 5%
MEK; t = 24 h
  MEK inhibition at end of observation period: 66 ± 19%
SARS-CoV-2
  anti-SARS-CoV-2 activity: potent anti-SARS-CoV-2 activity
[3]
  EC50: 4.2 to 6.4 µM
